In ChEMBL document CHEMBL4118225, “Development, Optimization, and Structure-Activity Relationships of Covalent-Reversible JAK3 Inhibitors Based on a Tricyclic Imidazo[5,4- d]pyrrolo[2,3- b]pyridine Scaffold” (J Med Chem, 2018):
Converted amounts (≈) assume the structure as drawn.

Assays:
[1] = target: T1, Tyrosine-protein kinase JAK3 (Homo sapiens, UniProt P52333)
T1 sequence (P52333 whole entry): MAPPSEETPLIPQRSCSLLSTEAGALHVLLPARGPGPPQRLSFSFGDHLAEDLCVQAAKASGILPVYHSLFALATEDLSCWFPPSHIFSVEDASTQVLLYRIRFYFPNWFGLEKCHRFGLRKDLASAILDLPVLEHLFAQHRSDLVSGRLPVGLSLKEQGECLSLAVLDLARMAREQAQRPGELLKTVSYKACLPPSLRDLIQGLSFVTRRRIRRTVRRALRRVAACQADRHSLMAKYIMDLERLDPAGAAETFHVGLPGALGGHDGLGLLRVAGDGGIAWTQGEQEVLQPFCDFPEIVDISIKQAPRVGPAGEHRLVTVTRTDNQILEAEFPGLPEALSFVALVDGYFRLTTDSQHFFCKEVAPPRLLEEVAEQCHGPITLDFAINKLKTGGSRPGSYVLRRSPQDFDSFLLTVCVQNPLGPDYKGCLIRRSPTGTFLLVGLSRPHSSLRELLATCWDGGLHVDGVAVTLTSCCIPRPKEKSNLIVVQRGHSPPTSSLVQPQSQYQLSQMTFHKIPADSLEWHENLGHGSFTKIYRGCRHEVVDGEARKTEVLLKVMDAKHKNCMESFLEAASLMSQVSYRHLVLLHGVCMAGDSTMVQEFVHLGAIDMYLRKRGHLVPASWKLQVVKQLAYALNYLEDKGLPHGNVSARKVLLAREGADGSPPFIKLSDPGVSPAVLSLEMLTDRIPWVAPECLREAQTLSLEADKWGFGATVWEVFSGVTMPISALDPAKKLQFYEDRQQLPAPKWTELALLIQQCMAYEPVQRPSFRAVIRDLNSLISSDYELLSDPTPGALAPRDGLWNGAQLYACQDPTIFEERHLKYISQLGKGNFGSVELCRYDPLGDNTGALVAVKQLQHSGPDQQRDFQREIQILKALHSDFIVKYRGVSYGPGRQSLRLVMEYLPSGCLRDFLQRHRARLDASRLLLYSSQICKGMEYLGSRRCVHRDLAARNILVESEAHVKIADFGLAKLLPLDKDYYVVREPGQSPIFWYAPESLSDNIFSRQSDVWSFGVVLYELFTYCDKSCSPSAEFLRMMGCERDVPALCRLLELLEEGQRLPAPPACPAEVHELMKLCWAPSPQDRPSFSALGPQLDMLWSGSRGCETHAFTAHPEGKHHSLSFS
Description: Inhibition of recombinant human JAK3 (781 to 1124 residues) expressed in baculovirus expression system assessed as reduction in polypeptide substrate phosphorylation in presence of ATP by ELISA

[2] = target: T1, Tyrosine-protein kinase JAK3; remark: listed apart in the source
[3] = target: T2, Tyrosine-protein kinase JAK1 (Homo sapiens, UniProt P23458)
T2 sequence (P23458 whole entry): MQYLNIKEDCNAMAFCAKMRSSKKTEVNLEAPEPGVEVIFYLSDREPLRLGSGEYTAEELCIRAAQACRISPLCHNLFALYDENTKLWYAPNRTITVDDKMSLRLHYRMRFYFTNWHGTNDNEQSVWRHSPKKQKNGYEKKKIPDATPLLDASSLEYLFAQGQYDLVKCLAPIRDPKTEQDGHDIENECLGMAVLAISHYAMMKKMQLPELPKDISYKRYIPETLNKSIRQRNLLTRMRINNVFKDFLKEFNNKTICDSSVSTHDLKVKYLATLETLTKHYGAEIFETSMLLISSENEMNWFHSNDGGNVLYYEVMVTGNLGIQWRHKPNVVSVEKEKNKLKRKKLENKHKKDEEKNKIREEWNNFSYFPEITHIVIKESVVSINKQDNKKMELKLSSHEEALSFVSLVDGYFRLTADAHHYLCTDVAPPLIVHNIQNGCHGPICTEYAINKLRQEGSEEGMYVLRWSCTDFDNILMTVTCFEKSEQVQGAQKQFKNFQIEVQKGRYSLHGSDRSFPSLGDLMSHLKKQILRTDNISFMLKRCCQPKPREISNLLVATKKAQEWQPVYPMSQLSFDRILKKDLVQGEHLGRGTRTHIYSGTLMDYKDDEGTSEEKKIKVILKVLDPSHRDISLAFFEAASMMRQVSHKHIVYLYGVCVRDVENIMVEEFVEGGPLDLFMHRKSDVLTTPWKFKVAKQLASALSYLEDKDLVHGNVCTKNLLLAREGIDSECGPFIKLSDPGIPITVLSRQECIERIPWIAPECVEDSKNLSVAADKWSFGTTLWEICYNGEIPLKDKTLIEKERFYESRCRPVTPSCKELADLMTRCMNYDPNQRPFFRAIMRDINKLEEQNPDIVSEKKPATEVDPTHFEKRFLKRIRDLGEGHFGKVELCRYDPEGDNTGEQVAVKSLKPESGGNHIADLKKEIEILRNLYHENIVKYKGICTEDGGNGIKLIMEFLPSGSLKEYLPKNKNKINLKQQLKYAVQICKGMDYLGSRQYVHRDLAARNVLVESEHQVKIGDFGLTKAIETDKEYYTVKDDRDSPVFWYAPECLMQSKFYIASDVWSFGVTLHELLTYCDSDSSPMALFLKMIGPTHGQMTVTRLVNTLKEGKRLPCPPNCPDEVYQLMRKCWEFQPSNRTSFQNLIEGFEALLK
Description: Inhibition of human JAK1 using poly[Glu:Tyr] (4:1) as substrate in presence of 10 uM [gamma33P]ATP by radiometric method

[4] = target: T3, Tyrosine-protein kinase JAK2 (Homo sapiens, UniProt O60674)
T3 sequence (O60674 whole entry): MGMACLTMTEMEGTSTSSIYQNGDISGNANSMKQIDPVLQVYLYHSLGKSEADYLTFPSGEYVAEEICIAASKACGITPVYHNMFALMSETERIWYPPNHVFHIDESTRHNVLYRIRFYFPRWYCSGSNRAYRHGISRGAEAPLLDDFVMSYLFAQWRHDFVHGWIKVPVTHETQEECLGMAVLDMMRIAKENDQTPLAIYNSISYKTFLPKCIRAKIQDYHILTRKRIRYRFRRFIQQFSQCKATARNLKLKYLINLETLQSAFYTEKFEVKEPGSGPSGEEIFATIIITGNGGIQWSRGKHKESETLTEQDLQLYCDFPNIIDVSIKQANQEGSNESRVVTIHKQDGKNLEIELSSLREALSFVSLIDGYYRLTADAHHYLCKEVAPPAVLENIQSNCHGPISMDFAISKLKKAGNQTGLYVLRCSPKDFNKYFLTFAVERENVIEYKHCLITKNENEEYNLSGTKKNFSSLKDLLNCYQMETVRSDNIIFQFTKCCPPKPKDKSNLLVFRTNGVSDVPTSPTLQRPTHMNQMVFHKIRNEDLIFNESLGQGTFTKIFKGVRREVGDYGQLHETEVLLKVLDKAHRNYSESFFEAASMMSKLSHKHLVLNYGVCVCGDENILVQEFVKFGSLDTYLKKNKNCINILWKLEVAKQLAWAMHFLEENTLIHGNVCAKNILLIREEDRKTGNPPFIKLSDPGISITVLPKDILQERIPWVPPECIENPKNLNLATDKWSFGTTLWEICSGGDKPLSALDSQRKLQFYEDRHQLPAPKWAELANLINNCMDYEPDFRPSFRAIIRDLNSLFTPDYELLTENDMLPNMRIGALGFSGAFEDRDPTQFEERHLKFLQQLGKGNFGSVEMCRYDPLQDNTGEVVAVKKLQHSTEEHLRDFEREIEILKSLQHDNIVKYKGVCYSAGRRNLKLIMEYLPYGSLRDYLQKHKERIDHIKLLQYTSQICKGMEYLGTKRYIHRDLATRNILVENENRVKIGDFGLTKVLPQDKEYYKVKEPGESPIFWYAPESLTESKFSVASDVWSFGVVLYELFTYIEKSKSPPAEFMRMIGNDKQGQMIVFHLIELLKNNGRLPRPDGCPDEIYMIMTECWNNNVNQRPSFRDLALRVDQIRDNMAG
Description: Inhibition of human JAK2 using poly[Glu:Tyr] (4:1) as substrate in presence of 10 uM [gamma33P]ATP by radiometric method

[5] = target: Non-receptor tyrosine-protein kinase TYK2 (Homo sapiens, UniProt P29597)
Sequence of Non-receptor tyrosine-protein kinase TYK2 (P29597 whole entry): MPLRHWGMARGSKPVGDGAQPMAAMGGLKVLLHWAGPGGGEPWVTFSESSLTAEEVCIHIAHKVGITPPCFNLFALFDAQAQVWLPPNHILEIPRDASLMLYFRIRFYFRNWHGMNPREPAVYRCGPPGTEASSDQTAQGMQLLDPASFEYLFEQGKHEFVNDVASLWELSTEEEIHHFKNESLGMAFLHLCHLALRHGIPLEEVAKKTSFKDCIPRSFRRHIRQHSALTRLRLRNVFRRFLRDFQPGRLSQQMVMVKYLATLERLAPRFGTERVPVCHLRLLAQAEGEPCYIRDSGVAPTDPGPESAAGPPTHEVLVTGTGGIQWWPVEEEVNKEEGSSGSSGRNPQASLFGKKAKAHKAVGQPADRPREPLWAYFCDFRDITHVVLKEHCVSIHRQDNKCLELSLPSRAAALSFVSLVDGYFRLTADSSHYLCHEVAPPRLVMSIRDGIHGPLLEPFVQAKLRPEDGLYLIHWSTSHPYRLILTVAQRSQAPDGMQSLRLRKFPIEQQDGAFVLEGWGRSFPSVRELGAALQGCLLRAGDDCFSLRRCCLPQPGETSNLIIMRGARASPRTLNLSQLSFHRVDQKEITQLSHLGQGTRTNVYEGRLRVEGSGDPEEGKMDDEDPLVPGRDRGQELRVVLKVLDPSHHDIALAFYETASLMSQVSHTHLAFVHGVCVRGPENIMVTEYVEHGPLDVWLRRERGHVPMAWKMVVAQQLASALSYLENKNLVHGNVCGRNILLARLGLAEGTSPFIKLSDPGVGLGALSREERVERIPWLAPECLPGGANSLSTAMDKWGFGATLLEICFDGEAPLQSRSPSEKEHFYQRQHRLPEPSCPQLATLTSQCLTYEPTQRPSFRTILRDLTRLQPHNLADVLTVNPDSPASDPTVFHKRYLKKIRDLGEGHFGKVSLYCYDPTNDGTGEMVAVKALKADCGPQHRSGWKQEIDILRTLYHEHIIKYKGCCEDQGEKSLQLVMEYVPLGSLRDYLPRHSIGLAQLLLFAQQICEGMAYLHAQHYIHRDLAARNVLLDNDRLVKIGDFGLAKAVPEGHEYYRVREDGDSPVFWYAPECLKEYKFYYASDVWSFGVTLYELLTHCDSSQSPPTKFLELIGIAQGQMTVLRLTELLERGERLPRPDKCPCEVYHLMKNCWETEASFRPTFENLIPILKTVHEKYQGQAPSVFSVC

[6] = Thiol reactivity in kinase assay buffer in presence of DTT; type: physicochemical
[7] = target: T3, Tyrosine-protein kinase JAK2; assay: Inhibition of kinase tracer-05 binding to C-terminal NanoLuc tagged full length JAK2 (unknown origin) expressed in HEK cells by NanoBRET assay; type: cell-based
[8] = target: Tyrosine-protein kinase BTK (Homo sapiens, UniProt Q06187); assay: Inhibition of kinase tracer-05 binding to C-terminal NanoLuc tagged full length BTK (unknown origin) expressed in HEK cells by NanoBRET assay; type: cell-based
Sequence of Tyrosine-protein kinase BTK (Q06187 whole entry): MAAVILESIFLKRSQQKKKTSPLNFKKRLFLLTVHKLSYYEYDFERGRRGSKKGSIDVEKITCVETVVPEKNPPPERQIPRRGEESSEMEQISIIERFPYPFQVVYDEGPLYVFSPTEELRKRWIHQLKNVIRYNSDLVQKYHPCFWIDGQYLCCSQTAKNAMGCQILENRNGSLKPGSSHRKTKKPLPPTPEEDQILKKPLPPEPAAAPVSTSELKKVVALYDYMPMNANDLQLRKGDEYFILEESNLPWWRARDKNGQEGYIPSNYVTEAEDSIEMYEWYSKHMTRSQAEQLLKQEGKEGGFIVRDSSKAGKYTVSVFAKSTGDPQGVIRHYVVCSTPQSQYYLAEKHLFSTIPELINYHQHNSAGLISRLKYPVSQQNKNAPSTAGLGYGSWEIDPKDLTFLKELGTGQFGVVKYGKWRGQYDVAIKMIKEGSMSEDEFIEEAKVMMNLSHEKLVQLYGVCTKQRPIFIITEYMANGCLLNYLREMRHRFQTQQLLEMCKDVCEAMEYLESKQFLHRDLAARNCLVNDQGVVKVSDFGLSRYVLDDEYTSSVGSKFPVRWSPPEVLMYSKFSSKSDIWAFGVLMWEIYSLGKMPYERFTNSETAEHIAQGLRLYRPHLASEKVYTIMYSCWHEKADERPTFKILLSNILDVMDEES

[9] = Metabolic stability in mouse liver microsomes assessed as parent compound remaining at 100 uM after 180 mins in presence of NADPH regenerating system by LC-MS analysis; type: ADME, microsome; conditions: read-out: Stability
[10] = Metabolic stability in human whole blood assessed as parent compound remaining at 1 uM after 180 mins by LC-MS analysis; type: ADME, tissue-based; conditions: read-out: Stability
[11] = target: T2, Tyrosine-protein kinase JAK1; remark: listed apart in the source
Description: Inhibition of kinase tracer-04 binding to C-terminal NanoLuc tagged full length JAK1 (unknown origin) expressed in HEK cells by NanoBRET assay

[12] = target: T1, Tyrosine-protein kinase JAK3; remark: listed apart in the source
Description: Inhibition of kinase tracer-05 binding to C-terminal NanoLuc tagged full length JAK3 (unknown origin) expressed in HEK cells by NanoBRET assay

[13] = Aqueous solubility in pH 7.4 PBS buffer by HPLC analysis; type: physicochemical
[14] = Half life in human whole blood at 1 uM by LC-MS analysis; type: ADME, tissue-based
[15] = Aqueous solubility in HEPES buffer; type: physicochemical

Q: For N#CCCc1ccc(-c2nc3cnc4[nH]ccc4c3n2C2CCCCC2)o1, which IC50 [1] is on record?
A: 129 nM

Q: What about the IC50 [2] of the same molecule?
A: 10 nM

Q: And the IC50 [3]?
A: 16 nM

Q: And the IC50 [4]?
A: 48 nM

Q: And the IC50 [5]?
A: 25 nM

Q: For N#C/C=C/c1cccc(-c2nc3cnc4[nH]ccc4c3n2C2CCCCC2)c1, which IC50 [1] is on record?
A: 135 nM

Q: What does the source list for N#CC(C#N)=Cc1cccc(-c2nc3cnc4[nH]ccc4c3n2C2CCCCC2)c1?
A: IC50 [1]: 11 nM; Drug metabolism [6]: Metabolite_Detected

Q: With CNC(=O)C(C#N)=Cc1ccc(-c2nc3cnc4[nH]ccc4c3n2C2CCCCC2)o1 as the molecule, how does the IC50 [1] read?
A: 23 nM

Q: With CN(C)C(=O)C(C#N)=Cc1ccc(-c2nc3cnc4[nH]ccc4c3n2C2CCCCC2)cc1 as the molecule, how does the IC50 [1] read?
A: 571 nM

Q: Which IC50 [1] does the source give for N#C/C=C/c1ccc(-c2nc3cnc4[nH]ccc4c3n2C2CCCCC2)o1 here?
A: 27 nM

Q: What about the IC50 [2] of the same molecule?
A: 0.21 nM

Q: And the EC50 [7]?
A: 7710 nM

Q: And the EC50 [8]?
A: 13300 nM

Q: And the remaining at 3 h, 100 µM [9]?
A: 53.9%

Q: What about the remaining at 3 h, 1 µM [10] of the same molecule?
A: 98.8%

Q: What about the IC50 [3] of the same molecule?
A: 12 nM

Q: And the IC50 [4]?
A: 53 nM

Q: And the IC50 [5]?
A: 44 nM

Q: What about the EC50 [11] of the same molecule?
A: > 10000 nM

Q: What about the EC50 [12] of the same molecule?
A: 740 nM

Q: Which IC50 [1] does the source give for CN(C)C(=O)CCc1ccc(-c2nc3cnc4[nH]ccc4c3n2C2CCCCC2)cc1 here?
A: 642 nM

Q: With N#C/C=C/c1ccc(-c2nc3cnc4[nH]ccc4c3n2C2CCCCC2)cc1 as the molecule, how does the IC50 [1] read?
A: 390 nM

Q: Which IC50 [1] does the source give for NC(=O)CCc1ccc(-c2nc3cnc4[nH]ccc4c3n2C2CCCCC2)cc1 here?
A: 499 nM

Q: What does the source list for N#CC(C#N)=Cc1ccc(-c2nc3cnc4[nH]ccc4c3n2C2CCCCC2)cc1?
A: IC50 [1]: 30 nM; Drug metabolism [6]: Metabolite_Detected

Q: What does the source list for CN1CCN(C(=O)C(C#N)=Cc2ccc(-c3nc4cnc5[nH]ccc5c4n3C3CCCCC3)o2)CC1?
A: IC50 [1]: 14 nM; IC50 [2]: 0.74 nM; EC50 [7]: > 10000 nM; EC50 [8]: > 10000 nM; remaining at 3 h, 100 µM [9]: 6.9%; remaining at 3 h, 1 µM [10]: 47%; solubility [13]: 248 µM (≈ 120 µg/mL); half-life at 1 µM [14]: 3 h; IC50 [3]: 117 nM; IC50 [4]: 765 nM; IC50 [5]: 791 nM; EC50 [11]: > 10000 nM; EC50 [12]: 257 nM

Q: What does the source list for N#CC(C#N)=Cc1ccc(-c2nc3cnc4[nH]ccc4c3n2C2CCCCC2)o1?
A: IC50 [1]: 4 nM; Drug metabolism [6]: Metabolite_Detected; IC50 [2]: 0.39 nM; EC50 [7]: 630 nM; EC50 [8]: 5790 nM; remaining at 3 h, 100 µM [9]: 11%; remaining at 3 h, 1 µM [10]: 1.5%; IC50 [3]: 4 nM; IC50 [4]: 188 nM; IC50 [5]: 14 nM; EC50 [11]: 7660 nM; EC50 [12]: 678 nM

Q: Which IC50 [1] does the source give for CN(C)C(=O)C(C#N)=Cc1ccc(-c2nc3cnc4c(ccn4C)c3n2C2CCCCC2)o1 here?
A: > 10000 nM

Q: Which IC50 [1] does the source give for CN(C)C(=O)C(C#N)=Cc1ccc(-c2nc3cnc4[nH]ccc4c3n2C)o1 here?
A: 368 nM

Q: Which IC50 [1] does the source give for CN(C)C(=O)CCc1cccc(-c2nc3cnc4[nH]ccc4c3n2C2CCCCC2)c1 here?
A: 678 nM

Q: With CC(C)(O)C(=O)N1CCN(c2ccc(C(F)(F)F)c(C3=C(c4c[nH]c5ccccc45)C(=O)NC3=O)c2)CC1 as the molecule, how does the IC50 [3] read?
A: 344 nM

Q: What about the IC50 [5] of the same molecule?
A: 2110 nM

Q: For N#CCCc1ccc(-c2nc3cnc4[nH]ccc4c3n2C2CCCCC2)cc1, which IC50 [1] is on record?
A: 436 nM

Q: Which IC50 [1] does the source give for N#CCCc1cccc(-c2nc3cnc4[nH]ccc4c3n2C2CCCCC2)c1 here?
A: 505 nM

Q: For CN(C)C(=O)C(C#N)=Cc1cccc(-c2nc3cnc4[nH]ccc4c3n2C2CCCCC2)c1, which IC50 [1] is on record?
A: 205 nM

Q: For NC(=O)/C=C/c1ccc(-c2nc3cnc4[nH]ccc4c3n2C2CCCCC2)cc1, which IC50 [1] is on record?
A: > 1000 nM

Q: And the solubility [15]?
A: Insoluble

Q: What does the source list for CN(C)C(=O)C(C#N)=Cc1ccc(-c2nc3cnc4[nH]ccc4c3n2C2CCCCC2)o1?
A: EC50 [8]: > 10000 nM; remaining at 3 h, 100 µM [9]: 58%; remaining at 3 h, 1 µM [10]: 49.4%; solubility [13]: 56 µM (≈ 24 µg/mL); half-life at 1 µM [14]: 3 h

Q: With NC(=O)CCc1cccc(-c2nc3cnc4[nH]ccc4c3n2C2CCCCC2)c1 as the molecule, how does the IC50 [1] read?
A: 490 nM

Q: With NC(=O)CCc1ccc(-c2nc3cnc4[nH]ccc4c3n2C2CCCCC2)o1 as the molecule, how does the IC50 [1] read?
A: 59 nM

Q: Which IC50 [1] does the source give for CN(C)C(=O)CCc1ccc(-c2nc3cnc4[nH]ccc4c3n2C2CCCCC2)o1 here?
A: 181 nM

Q: And the IC50 [2]?
A: 48 nM

Q: What about the IC50 [3] of the same molecule?
A: 45 nM

Q: What about the IC50 [4] of the same molecule?
A: 183 nM

Q: What about the IC50 [5] of the same molecule?
A: 139 nM

Q: With NC(=O)/C=C/c1ccc(-c2nc3cnc4[nH]ccc4c3n2C2CCCCC2)o1 as the molecule, how does the IC50 [1] read?
A: 129 nM
